From ChEMBL document CHEMBL5214933, “Discovery of Selenium-Containing STING Agonists as Orally Available Antitumor Agents” (J Med Chem, 2022)
≈ marks a conversion by molar mass, not a printed value. Calls of active or inactive are those of the source. No cut-off for these calls is given here.

Legend:
[1] = Solubility of compound in PBS buffer at pH 7.4 at 3 mg incubated for 24 hrs under shaking condition by RP-HPLC analysis; assay type: physicochemical
[2] = Lipophilicity, logP of compound by RP-HPLC analysis; assay type: physicochemical
[3] = Stability in human plasma assessed as parent compound remaining at 1 uM incubated for 24 hrs in presence of NADPH by LC-MS/MS analysis; assay type: ADME, cell-free; settings: read-out: Stability
CYP3A4 = CYP3A4 (Homo sapiens, UniProt P08684); experiment: Inhibition of recombinant CYP3A4 (unknown origin) using midazolam as substrate assessed as reduction in substrate hydroxylation at 10 uM incubated for 5 mins in presence of NADPH by LC-MS/MS analysis relative to control; assay type: ADME; settings: recombinant CYP3A4, probe midazolam
Sequence of CYP3A4 (P08684 whole entry): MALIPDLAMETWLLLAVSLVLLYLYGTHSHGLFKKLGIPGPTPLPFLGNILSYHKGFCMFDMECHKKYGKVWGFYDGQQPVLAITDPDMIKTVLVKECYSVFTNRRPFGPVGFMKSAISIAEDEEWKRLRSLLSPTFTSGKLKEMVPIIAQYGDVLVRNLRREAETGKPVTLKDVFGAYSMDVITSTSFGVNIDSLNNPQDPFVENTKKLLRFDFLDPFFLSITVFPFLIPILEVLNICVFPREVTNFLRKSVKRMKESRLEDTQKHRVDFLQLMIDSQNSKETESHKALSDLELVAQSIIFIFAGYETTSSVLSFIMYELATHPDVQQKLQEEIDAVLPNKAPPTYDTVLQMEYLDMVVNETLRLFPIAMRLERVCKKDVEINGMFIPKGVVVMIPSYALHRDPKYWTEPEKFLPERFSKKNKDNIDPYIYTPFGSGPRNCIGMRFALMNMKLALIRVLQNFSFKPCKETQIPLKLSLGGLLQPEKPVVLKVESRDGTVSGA

[4] = Cmax in Sprague-Dawley rat at 50 mg/kg, po measured for 1440 mins by LC-MS/MS analysis; assay type: ADME, organism-based; design: time 1440 min, dose 50 mg/kg, route po; settings: in vivo
[5] = AUC (0 to infinity) in Sprague-Dawley rat at 5 mg/kg, iv measured for 1440 mins by LC-MS/MS analysis; assay type: ADME, organism-based; design: dose 5 mg/kg, time 1440 min, route iv; settings: in vivo
[6] = Half life in Sprague-Dawley rat at 50 mg/kg, po measured for 1440 mins by LC-MS/MS analysis; assay type: ADME, organism-based; settings: in vivo
[7] = Volume of distribution at steady state in Sprague-Dawley rat at 5 mg/kg, iv measured for 1440 mins by LC-MS/MS analysis; assay type: ADME, organism-based; settings: in vivo, read-out: Vdss
[8] = Clearance in Sprague-Dawley rat at 50 mg/kg, po measured for 1440 mins by LC-MS/MS analysis; assay type: ADME, organism-based; settings: in vivo
[9] = Toxicity in immunocompetent BALB/c mouse assessed as reduction in body weight at 30 mg/kg, po measured after 3 days; assay type: organism-based; settings: in vivo, 72 h, time 3 day
MC-38 = experiment: Antitumor activity against mouse MC38 cells implanted in C57BL/6 mouse assessed as tumor growth regression at 30 mg/kg, po administered once every 3 days and measured after 21 days by digital caliper analysis relative to control; assay type: functional; settings: time 21 day
CT26 [10] = experiment: Immunological memory derived antitumor activity against mouse CT26 cells implanted in naive BALB/c mouse assessed as suppression of tumor growth at 20 mg/kg, po administered once every 5 days for 23 days starting from day 8 followed by reinoculation of cells into mouse on day 61 and measured for 50 days; assay type: functional; settings: time 50 day
4T1-Luc = experiment: Antitumor activity against mouse 4T1-Luc cells implanted in naive BALB/c mouse assessed as tumor growth inhibition at 20 mg/kg, po administered once every 5 days and measured after 15 days by digital caliper analysis; assay type: functional, organism-based; settings: time 15.0 day
CT26 [11] = experiment: In vivo activation of STING in naive BALB/c mouse implanted with mouse CT26 cells assessed as increase in IFN-gamma level in plasma at 20 mg/kg, po administered as single dose and measured after 4 hrs by ELISA; assay type: functional, organism-based
Mus musculus [12] = experiment: Immunostimulatory activity in naive […] mouse implanted with mouse MC38 cells assessed as increase in T cells in spleen at 30 mg/kg, po by FACS analysis; assay type: functional, organism-based; settings: MC-38
Mus musculus [13] = experiment: Immunostimulatory activity in naive […] mouse implanted with mouse MC38 cells assessed as increase in CD8 T cells in spleen at 30 mg/kg, po by FACS analysis; assay type: functional, organism-based; settings: MC-38
Mus musculus [14] = experiment: Immunostimulatory activity in naive […] mouse implanted with mouse MC38 cells assessed as increase in NKT cells in spleen at 30 mg/kg, po by FACS analysis; assay type: functional, organism-based; settings: MC-38
Mus musculus [15] = experiment: Immunostimulatory activity in naive […] mouse implanted with mouse MC38 cells assessed as increase in CD69-positive NK cells in spleen at 30 mg/kg, po by FACS analysis (reference value: 4.7%); assay type: functional, MC-38
4T1 [16] = experiment: Antitumor activity against mouse 4T1 cells implanted in naive BALB/c mouse assessed as increase in Ki67-positive CD4 T cells in tumor at 20 mg/kg, po administered once every 5 days by FACS analysis (reference value: 4.4%); assay type: functional; settings: time 5 day
4T1 [17] = experiment: Antitumor activity against mouse 4T1 cells implanted in naive BALB/c mouse assessed as increase in Ki67-positive CD8 T cells in tumor at 20 mg/kg, po administered once every 5 days by FACS analysis (reference value: 14%); assay type: functional; settings: time 5 day
[18] = biological target: T1, Stimulator of interferon genes protein (Homo sapiens, UniProt Q86WV6); experiment: Binding affinity to recombinant human STING H232 variant expressed in Escherichia coli BL21 (DE3) assessed as dissociation constant by multicycle SPR analysis
Target sequence in this assay (Q86WV6 whole entry, looked up, stated change not applied): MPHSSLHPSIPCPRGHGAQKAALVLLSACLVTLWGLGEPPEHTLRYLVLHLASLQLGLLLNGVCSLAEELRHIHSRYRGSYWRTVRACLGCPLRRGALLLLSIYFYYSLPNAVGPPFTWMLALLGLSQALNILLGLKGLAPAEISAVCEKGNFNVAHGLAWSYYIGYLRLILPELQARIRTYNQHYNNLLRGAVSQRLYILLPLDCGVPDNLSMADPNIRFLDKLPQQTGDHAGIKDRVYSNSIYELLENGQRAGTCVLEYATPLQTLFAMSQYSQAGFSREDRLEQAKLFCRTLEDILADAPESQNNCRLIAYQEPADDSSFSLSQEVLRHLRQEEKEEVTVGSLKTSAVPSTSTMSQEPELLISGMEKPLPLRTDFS

[19] = system: Stimulator of interferon genes protein (Homo sapiens), Q86WV6 [UNDEFINED MUTATION]; experiment: Binding affinity to recombinant human STING R232 variant expressed in Escherichia coli BL21 (DE3) assessed as thermal stabilization by measuring change in melting temperature at 0.1 mM incubated for 30 mins by SYPRO orange dye based differential scanning fluorimetry assay
Sequence of Stimulator of interferon genes protein (Homo sapiens), Q86WV6 [UNDEFINED MUTATION] (Q86WV6 whole entry, looked up, stated change not applied): as above

[20] = biological target: T2, Stimulator of interferon genes protein (Mus musculus, UniProt Q3TBT3); experiment: Agonist activity at STING in mouse RAW264.7 cells harboring IRF-inducible luciferase reporter construct assessed as increase in relative fluorescence unit incubated for 12 hrs by Quanti-luc reagent based assay; assay type: cell-based
T2 sequence (Q3TBT3 whole entry): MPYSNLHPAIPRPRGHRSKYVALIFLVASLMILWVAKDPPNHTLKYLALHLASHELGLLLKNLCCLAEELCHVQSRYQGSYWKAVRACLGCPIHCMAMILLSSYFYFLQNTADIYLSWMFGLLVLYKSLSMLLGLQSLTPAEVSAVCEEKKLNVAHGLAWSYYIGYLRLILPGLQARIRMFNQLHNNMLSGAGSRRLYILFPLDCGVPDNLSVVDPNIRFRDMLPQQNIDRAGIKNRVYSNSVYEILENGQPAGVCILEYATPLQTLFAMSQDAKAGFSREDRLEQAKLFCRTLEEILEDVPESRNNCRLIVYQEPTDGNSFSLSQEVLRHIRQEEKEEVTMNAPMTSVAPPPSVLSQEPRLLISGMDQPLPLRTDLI

[21] = biological target: T1, Stimulator of interferon genes protein; experiment: Agonist activity at STING in human THP-1 cells assessed as increase in IL6 mRNA expression at 10 uM measured after 3 hrs by qRT-PCR analysis; assay type: cell-based; settings: filed as agonist
Target sequence in this assay (Q86WV6 whole entry): as the sequence (Q86WV6 whole entry, looked up, stated change not applied) above

[22] = biological target: T3, Stimulator of interferon genes protein (Mus musculus) (UniProt Q3TBT3); experiment: Agonist activity at STING in mouse MEF cells assessed as increase in CXCL10 mRNA expression at 10 uM measured after 3 hrs by qRT-PCR analysis; assay type: cell-based; settings: filed as agonist
T3 sequence (whole entry): T2 sequence (Q3TBT3 whole entry)

[23] = biological target: T3, Stimulator of interferon genes protein (Mus musculus); experiment: Agonist activity at STING in mouse MEF cells assessed as increase in IL6 mRNA expression at 10 uM measured after 3 hrs by qRT-PCR analysis; assay type: cell-based; settings: filed as agonist
[24] = biological target: T1, Stimulator of interferon genes protein; experiment: Agonist activity at STING in human THP-1 cells harboring IRF-inducible luciferase reporter construct assessed as increase in TBK1 phosphorylation measured after 3 hrs by Western blot analysis; assay type: cell-based; settings: filed as agonist, dose 10-50 µM, DDE = dose-dependent effect
Target sequence in this assay (Q86WV6 whole entry): as the sequence (Q86WV6 whole entry, looked up, stated change not applied) above

[25] = biological target: T1, Stimulator of interferon genes protein; experiment: Agonist activity at STING in human THP-1 cells harboring IRF-inducible luciferase reporter construct assessed as increase in IRF3 phosphorylation at 50 uM measured after 3 hrs by Western blot analysis; assay type: cell-based; settings: filed as agonist
Target sequence in this assay (Q86WV6 whole entry): as the sequence (Q86WV6 whole entry, looked up, stated change not applied) above

CC[C@H](CC(=O)c1cc2cc(OC)c(OC)cc2[se]1)C(=O)O
solubility thermodynamic at 24 h [1]: 1200 µg/mL (≈ 3.25 mM)
logP [2]: 2.4
remaining at 24 h, 1 µM [3]: 98%
inhibition at 5 min, 10 µM (CYP3A4): 13.5%
Cmax [4]: 58.2 µg/mL
AUC(0-inf) [5]: 29400 ng·h/mL
half-life [6]: 1.6 h
Vd [7]: 0.26 L/kg
CL/F [8]: 2.67 mL/min/kg
Activity [9]: Non-Toxic
Activity (MC-38): 100%
Activity (CT26 [10]): 100%
Activity (4T1-Luc): Active
Activity (CT26 [11]): Active
Activity (Mus musculus [12]): Active
Activity (Mus musculus [13]): Active
Activity (Mus musculus [14]): Active
Activity (Mus musculus [15]): 46.8%
Activity (4T1 [16]): 25.4%
Activity (4T1 [17]): 25.2%
Kd [18]: 58 µM
ΔTm [19]: 18.1 °C
EC50 [20]: 5.71 µM
Activity [21]: Active
Activity [22]: Active
Activity [23]: Active
Activity [24]: Dde
Activity [25]: Active
